IC50 data for 24 compounds are collected here from patent publication US20040127492A1 (Pharmacia Corporation, priority 2002, published 2004).

In one test the target is MAPKAPK2 (MK-2) (Homo sapiens, UniProt P49137). In words: Determination of MK-2 IC50 (HSP-peptide phosphorylation, anion exchange resin capture assay). Format: biochemical. The method in brief: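 Radiometric peptide assay: 15 nM p38α-activated MK-2, HSP-peptide, 0.03 mM ATP with [γ33P]ATP, 2% DMSO, pH 7.5, 30° C for 30 min; unreacted ATP removed on AG 1×8 resin before counting. Six concentrations in ten-fold steps, each in triplicate, gave IC50 in μM.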
Chain of MAPKAPK2 (MK-2) (P49137 whole entry, species assumed): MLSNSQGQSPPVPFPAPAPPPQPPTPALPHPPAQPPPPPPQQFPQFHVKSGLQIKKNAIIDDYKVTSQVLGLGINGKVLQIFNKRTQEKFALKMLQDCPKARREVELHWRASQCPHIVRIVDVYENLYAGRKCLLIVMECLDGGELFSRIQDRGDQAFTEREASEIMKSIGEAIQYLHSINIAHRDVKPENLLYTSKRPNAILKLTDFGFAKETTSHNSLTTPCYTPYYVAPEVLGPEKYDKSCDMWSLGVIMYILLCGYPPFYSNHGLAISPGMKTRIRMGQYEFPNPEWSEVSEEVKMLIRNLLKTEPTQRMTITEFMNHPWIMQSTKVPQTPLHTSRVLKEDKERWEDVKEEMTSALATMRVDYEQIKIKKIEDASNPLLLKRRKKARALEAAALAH

The target of another test is MK-3 (Homo sapiens, UniProt Q16644). In words: MK-3 inhibition IC50 (similar method to MK-2, with appropriate modifications). Format: biochemical. On the procedure:
In practice, the selectivity of a cyclic pyrazole MK-2 inhibitor varies depending upon the condition under which the test is performed and on the inhibitors being tested. However, for the purposes of this specification, the selectivity of a cyclic pyrazole MK-2 inhibitor inhibitor can be measured as a ratio of the in vitro or in vivo IC50 value for inhibition of MK-3, divided by the IC50 value for inhibition of MK-2 (IC50 MK-3/IC50 MK-2). […] The MK-2 or MK-3 inhibiting activity of any of the compounds described herein can be determined by any one of several methods that are well known to those having skill in the art of enzyme activity testing. […] A similar method, with appropriate modifications, Can be used to measure MK-3 inhibitory activity. In addition, the efficacy of one of the present MK-2 inhibiting compounds in therapeutic applications can be determined by testing for inhibition of TNFα production in cell culture and in animal model assays.

Setting [1] is: Table 4, pyrimidylpyrazole MK-2 inhibitors, read-out: MK-2 Avg. IC50.
The mark [2] stands for this setting: Table 4, pyrimidylpyrazole MK-2 inhibitors, read-out: NK-3 Avg. IC50.
The mark [3] stands for this setting: Table 2, pyrazolylpyrazole MK-2 inhibitors, read-out: MK-2 Avg. IC50.
[4] abbreviates: Table 2, pyrazolylpyrazole MK-2 inhibitors, read-out: MK-3 Avg. IC50.
The mark [5] stands for this setting: Table 1, phenoxypyrazole MK-2 inhibitors, read-out: MK-2 Avg, IC50.
[6] abbreviates: Table 1, phenoxypyrazole MK-2 inhibitors, read-out: MK-3 Avg. IC50.
The mark [7] stands for this setting: Table 5, other cyclic pyrazole MK-2 inhibiting compounds, read-out: MK-2 Avg. IC50.
[8] abbreviates: Table 5, other cyclic pyrazole MK-2 inhibiting compounds, read-out: MK-3 Avg. IC50.

Read-outs that look alike come from different tables or passages of the source. Bounds are passed on as bounds.

Chain of MK-3 (Q16644 whole entry, species assumed): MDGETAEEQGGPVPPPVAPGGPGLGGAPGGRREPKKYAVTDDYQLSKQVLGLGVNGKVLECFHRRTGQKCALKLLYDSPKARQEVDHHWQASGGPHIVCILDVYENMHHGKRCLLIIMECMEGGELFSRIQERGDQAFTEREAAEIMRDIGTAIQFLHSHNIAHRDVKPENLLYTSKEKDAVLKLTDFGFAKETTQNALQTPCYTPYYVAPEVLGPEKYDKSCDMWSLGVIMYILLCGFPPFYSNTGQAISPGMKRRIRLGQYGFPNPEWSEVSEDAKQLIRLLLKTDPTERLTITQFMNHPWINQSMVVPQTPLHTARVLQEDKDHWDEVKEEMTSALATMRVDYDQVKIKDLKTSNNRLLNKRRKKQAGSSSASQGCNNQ

For `NCCCn1nc2c(c1C(=O)O)CCc1cnc(-c3ccc(O)cc3)cc1-2` [Example 3], the figures for the IC50 on MAPKAPK2 (MK-2) (read-out: MK-2 Avg. IC50) and on MK-3 (read-out: MK-3 Avg. IC50) were 0.0189 µM and 0.361 µM, respectively.
On to `NCCCn1nc2c(c1C(=O)O)CCc1cnc(-c3ccccc3)nc1-2` [Example 3], for which the values for the IC50 at MAPKAPK2 (MK-2) (setting [1]) and on MK-3 (setting [2]) were 0.406 µM and 10.8 µM, respectively.
For the compound `O=C(O)c1c2c(nn1CCCNCCc1ccc(Br)cc1)-c1cn[nH]c1CC2` [Example 3], the IC50 (as a rule, the concentration needed to halve the response being measured) at MAPKAPK2 (MK-2) (setting [3]) worked out at 2.23 µM; at MK-3 (setting [4]), 20.8 µM.
With `O=C1NCCCn2nc3c(c21)CCc1cc(O)c(-c2cccc([N+](=O)[O-])c2)cc1-3` [Example 3], the IC50 is 1.48 µM at MAPKAPK2 (MK-2) (setting [5]) and more than 200 µM on MK-3 (setting [6]).
In the same order, the values of `NCCCn1nc2c(c1C(=O)O)CCc1cc(O)ccc1-2` [Example 4] are 2.09 µM and 37.9 µM.
With `NCCCn1nc2c(c1C(=O)O)CCc1cnc(-c3cccc(O)c3)cc1-2` [Example 4], the concentration for half-maximal inhibition (IC50) on MAPKAPK2 (MK-2) (read-out: MK-2 Avg. IC50) is 0.0194 µM; on MK-3 (read-out: MK-3 Avg. IC50), 0.55 µM.
For the compound `NCCn1nc2c(c1C(=O)O)CCc1[nH]ncc1-2` [Example 4], the IC50 on MAPKAPK2 (MK-2) (setting [3]) worked out at 2.43 µM; on MK-3 (setting [4]) it was 63.3 µM.
With `O=C1NCCn2nc3c(c21)CCc1cnc(/C=C/c2ccc4c(c2)OCO4)cc1-3` [Example 4], the half-maximal inhibitory concentration (IC50) at MAPKAPK2 (MK-2) (setting [7]) was 0.223 µM; on MK-3 (setting [8]), more than 20 µM.
For `C=CCSc1n[nH]c2c1-c1nn(CCCN)c(C(=O)O)c1CC2` [Example 5], the concentration for half-maximal inhibition (IC50) was determined as 2.84 µM at MAPKAPK2 (MK-2) (setting [3]) and 41.4 µM on MK-3 (setting [4]).
On to `COc1cccc(/C=C/c2cc3c(cn2)CCc2c-3nn3c2C(=O)NCC3)c1` [Example 5], for which the figures for the IC50 on MAPKAPK2 (MK-2) (setting [7]) and on MK-3 (setting [8]) were 0.328 µM and 11.8 µM, respectively.
Consider `NCCCn1nc2c(c1C(=O)O)CCc1cnc(-c3ccc4ccccc4c3)cc1-2` [Example 5], for which the IC50 is 0.023 µM on MAPKAPK2 (MK-2) (read-out: MK-2 Avg. IC50) and 0.0698 µM on MK-3 (read-out: MK-3 Avg. IC50).
On to `NCCn1nc2c(c1C(=O)O)CCc1cc(O)c(Br)cc1-2` [Example 5], for which the IC50 was 2.14 µM at MAPKAPK2 (MK-2) (setting [5]) and more than 200 µM at MK-3 (setting [6]).
Turning to `O=C1NCCCn2nc3c(c21)CCc1cnc(-c2cccnc2)nc1-3` [Example 5], the values for the IC50 on MAPKAPK2 (MK-2) (setting [1]) and on MK-3 (setting [2]) were 1.58 µM and 168 µM, respectively.
Take `NCCCn1nc2c(c1C(=O)O)CCc1[nH]nc(SCc3ccccc3)c1-2` [Example 6]: the IC50 on MAPKAPK2 (MK-2) (setting [3]) was determined as 2.89 µM; on MK-3 (setting [4]) it was 22.1 µM.
`NCCCn1nc2c(c1C(=O)O)CCc1cc(O)c(CCc3ccc(Cl)cc3)cc1-2` [Example 6]: the IC50 is 2.29 µM at MAPKAPK2 (MK-2) (setting [5]) and 38.2 µM on MK-3 (setting [6]).
Turning to `NCCCn1nc2c(c1C(=O)O)CCc1cnc(-c3cc(F)cc(F)c3)cc1-2` [Example 6], the IC50 at MAPKAPK2 (MK-2) (read-out: MK-2 Avg. IC50) came out at 0.028 µM; at MK-3 (read-out: MK-3 Avg. IC50), 0.135 µM.
`O=C(O)c1c2c(nn1CCCNC(c1ccccc1)(c1ccccc1)c1ccccc1)-c1nc(-c3cnc4ccccc4c3)ncc1CC2` [Example 6]: the half-maximal inhibitory concentration (IC50) on MAPKAPK2 (MK-2) (setting [1]) worked out at 2.16 µM; on MK-3 (setting [2]), 154 µM.
Consider `O=C1NCCn2nc3c(c21)CCc1cnc(/C=C/c2ccc(Cl)cc2)cc1-3` [Example 6], for which the half-inhibitory concentration (IC50) on MAPKAPK2 (MK-2) (setting [7]) was 0.536 µM; on MK-3 (setting [8]), more than 20 µM.
For the compound `NCCCn1nc2c(c1C(=O)O)CCc1cnc(-c3ccc4c(c3)OCO4)cc1-2` [Example 7], the IC50 on MAPKAPK2 (MK-2) (read-out: MK-2 Avg. IC50) was 0.0296 µM; at MK-3 (read-out: MK-3 Avg. IC50) it was 0.269 µM.
On to `O=C(O)c1c2c(nn1CCCNCCc1cccs1)-c1cn[nH]c1CC2` [Example 7], for which the IC50 at MAPKAPK2 (MK-2) (setting [3]) stood at 3.66 µM; on MK-3 (setting [4]), 55.2 µM.
Regarding `O=C1NCCn2nc3c(c21)CCc1cc(O)c(-c2cccc([N+](=O)[O-])c2)cc1-3` [Example 7], the concentration for half-maximal inhibition (IC50) on MAPKAPK2 (MK-2) (setting [5]) is 3 µM; at MK-3 (setting [6]), more than 200 µM.
Turning to `O=C1NCCn2nc3c(c21)CCc1cnc(/C=C/c2ccc(F)c(F)c2)cc1-3` [Example 7], the IC50 at MAPKAPK2 (MK-2) (setting [7]) was 0.623 µM; at MK-3 (setting [8]), more than 20 µM.
As to `NCCCn1nc2c(c1C(=O)O)CCc1cc(O)c(Br)cc1-2` [Example 8], the results for the 50% inhibitory concentration (IC50) on MAPKAPK2 (MK-2) (setting [5]) and at MK-3 (setting [6]) were 3.75 µM and more than 200 µM, respectively.
For `O=C(O)c1c2c(nn1CCCNCCc1ccsc1)-c1cn[nH]c1CC2` [Example 8], the IC50 on MAPKAPK2 (MK-2) (setting [3]) was 7.84 µM; at MK-3 (setting [4]), 48.5 µM.
